Columns and labels:
[1] = test system: pDNA-PK/DNA-PK in MDA-231 tumors; test: Pharmacodynamic assay, pDNA-PK/DNA-PK in MDA-231 tumors; assay type: in vivo, mice
Excerpt: (§1) Tumor Studies. Female NCr nu/nu mice (Crl:NU(NCr)-Foxn1 nu, Strain 490) were obtained from Charles River at 5-6 weeks of age. All animal procedures used in these studies were approved by the Institutional Animal Care and Use Committee (IACUC) at Duke University.
(§2) FADU or MDA-MB-231 cells were harvested during log phase growth for in vivo implantation. The resuspended cells were washed three times in phosphate buffered saline (PBS) before preparing the working dilution in PBS. FADU cells were diluted to 1×10^7 cells/mL and MDA-MB-231 cells were diluted to 5×10^7 cells/mL. Each mouse was injected subcutaneously in the right flank with 100 μL of the cellular suspension. Tumor growth was monitored until the tumors reached a target volume of at least 100 mm^3, at which point mice were randomly stratified into four treatment groups.
(§3) The vehicle used in this study was 0.5% (Hydroxypropyl)methyl cellulose (HPMC) and 0.2% Tween80 dissolved in deionized water. The pH of the vehicle was adjusted to 7.0-8.0 and the vehicle was stored at 4° C. On each day of in vivo treatment an appropriate mass of test compound was added to the vehicle at room temperature. The mixture was vortexed as necessary to generate a final concentration of 1.6 mg/mL.
(§4) Pharmacodynamic (PD) assays. Tumor studies were performed as follows. Mice bearing FADU or MDA-231 tumors were pre-dosed with vehicle alone or compound 569 alone at 3, 6, and 10 mg/kg. Tumors were then irradiated with 10 Gy 45 min after vehicle or compound 569 administration or left unirradiated (vehicle and compound 569 at 10 mg/kg). Tumors were harvested 1 h post radiation.
(§5) Tissue homogenates for pharmacodynamic analyses were collected and processed as follows. Tumor tissues from FADU or MDA-MB-231 tumors were flash frozen in liquid nitrogen and pulverized on dry ice using a tissue pulverizer. A portion of the tumor powder was transferred into a microtube, followed by addition of 500 μL of RIPA buffer [[…], pH 8.0, 150 mM NaCl, 0.1% SDS, 0.5% sodium deoxycholate, 1% IGEPAL® CA-630 (Sigma, 18896)]. To 10 ml of RIPA buffer, 2 tablets each of Protease inhibitor and Phosphatase inhibitor (Roche, #04693159001 & #04906837001), 200 μL of 0.1 M PMSF and 160 μL of Aprotinin, (Sigma, A6279) were added. The suspension was homogenized on ice with a pellet pestle motor (KONTES) and incubated on ice for 30 minutes. Cell lysates were centrifuged at 13,200 rpm for 15 min at 4° C. and supernatants were transferred to a new tube and analyzed for protein concentration with a BCA kit (Pierce, 23227), followed by immunoblotting.

[2] = test system: pKAP1/KAP1 in FADU tumors; test: Pharmacodynamic assay, pKAP1/KAP1 in FADU tumors; assay type: in vivo, mice; conditions: for pKAP1/KAP1: FADU tumors
Excerpt: as §1, §2, §3, §4, §5

MCF7 cells = test: Clonogenic survival assay in MCF7 cells with or without radiation; assay type: cell-based, human; conditions: for Fold 2 Gy / Fold 4 Gy: relative to DMSO
Protocol: Cell Culture. The MCF-7 human breast carcinoma cell line and HCT116 p53 wild-type and HCT116 p53−/− cell lines were obtained from ATCC. MCF7 and HCT116 cells were cultured in Dulbecco's modified Eagle's medium (DMEM (Gibco #11995-065). MDA-MB-231 human triple negative breast cancer cell line and FADU, human head and neck squamous cell carcinoma line, were obtained from Charles River Laboratories (Morrisville, N.C.). MDA-MB-231 cells were cultured in RPMI 1640 medium (Gibco, 11875-093). FADU cells were cultured in Minimum Essential Medium a (MEM a) (Gibco, 12571-063) supplemented with 1 mM Sodium Pyruvate (Gibco, 11360-070), 1×MEM Non-Essential Amino Acids (Gibco, 11140-050). All cell lines were supplemented with 10% fetal bovine serum (FBS) (Corning, 35-010-CV) and 1× Anti biotic-Anti mycotic (Gibco #15240-062) and were grown at […]. All cell lines were authenticated by short tandem repeat profiling and tested negative for mycoplasma.
Clonogenic survival assay. This assay was performed with compound 569. Cells were plated in 6-well plates at different densities: 250 cells for no IR control, 5000 cells for 2 Gy of IR and 10000 cells for 4 Gy of IR and cultured overnight. The next day, cells were preincubated with compound 569 at 100, 250, 500, or 1000 nM or DMSO for 30 min before being exposed to increasing doses of IR (0, 2, or 4 Gy). After IR, cells were continuously incubated with DMSO or compound 569 for 5 h before the culture medium was removed and cells were washed with PBS. Cells were cultured in complete medium in the absence of inhibitor for 9 days. Then cells were stained (PBS, 0.0037% v/v formaldehyde, 0,1% crystal violet) rinsed with water and dried.

[3] = 10 Gy, 3 mg/kg oral, harvested 1 h post radiation
[4] = 10 Gy, 6 mg/kg oral, harvested 1 h post radiation
[5] = 10 Gy, 10 mg/kg oral, harvested 1 h post radiation

Q: Which pDNA-PK/DNA-PK [1, 3] does the source give for `CC(C)NCCOc1ncc(-c2cc3c4c(cnc3cc2F)N(C)C(=O)C42CCC2)cc1NS(C)(=O)=O` [Compound 569, N-(5-(7′-Fluoro-3′-methyl-2′-oxo-2′,3′-dihydrospiro[cyclobutane-1,1′-pyrrolo[2,3-c]quinolin]-8′-yl)-2-(2-(isopropylamino)ethoxy)pyridin-3-yl)methanesulfonamide] here?
A: The pDNA-PK/DNA-PK was 0.889.

Q: And the pDNA-PK/DNA-PK [1, 4]?
A: Its pDNA-PK/DNA-PK is 0.670.

Q: What about the pDNA-PK/DNA-PK [1, 5] of the same compound?
A: The pDNA-PK/DNA-PK was 0.454.

Q: And the pDNA-PK/DNA-PK ([1]; no radiation, 10 mg/kg oral)?
A: The pDNA-PK/DNA-PK was 0.223.

Q: And the pKAP1/KAP1 [2, 3]?
A: The pKAP1/KAP1 was 0.0903.

Q: And the pKAP1/KAP1 [2, 4]?
A: Its pKAP1/KAP1 is 0.0982.

Q: What about the pKAP1/KAP1 [2, 5] of the same compound?
A: Its pKAP1/KAP1 is 0.156.

Q: And the pKAP1/KAP1 ([2]; no radiation, 10 mg/kg oral)?
A: Its pKAP1/KAP1 is 0.00595.

Q: What about the inhibition at 10 mg/kg ([2]; Mus musculus, FADU and MDA231 tumors (FIGS. 4 and 5, Tables 2-5), 10 Gy, 10 mg/kg, read-out: inhibition of tumor levels of radiation-induced phosphorylation of KAP1) of the same compound?
A: The inhibition at 10 mg/kg was over 80%.

Q: And the “Fold 2 Gy” value (MCF7 cells; 100 nM)?
A: The value was 7.5.

Q: What about the “Fold 4 Gy” value (MCF7 cells; 100 nM) of the same compound?
A: The value was 21.8.

Q: What about the “Fold 2 Gy” value (MCF7 cells; 250 nM) of the same compound?
A: The value was 10.8.

Q: And the “Fold 4 Gy” value (MCF7 cells; 250 nM)?
A: The value was 54.0.

Q: And the “Fold 2 Gy” value (MCF7 cells; 500 nM)?
A: The value was 14.7.

Q: And the “Fold 4 Gy” value (MCF7 cells; 500 nM)?
A: The value was 91.5.

Q: And the “Fold 2 Gy” value (MCF7 cells; 1000 nM)?
A: Its value is 22.0.

Q: And the “Fold 4 Gy” value (MCF7 cells; 1000 nM)?
A: The value was 198.

Q: What about the radiosensitization (MCF7 cells; 5-h exposure, 100-1000 nM, IR 0, 2, 4 Gy) of the same compound?
A: Its radiosensitization is “significant degree of radiosensitization”.

Q: And the “cellular toxicity in the absence of IR” value (MCF7 cells; 5-h exposure, 100-1000 nM, no IR)?
A: The value was “without evidence of cellular toxicity”.

Source: patent US20220142995A1, “DUAL ATM AND DNA-PK INHIBITORS FOR USE IN ANTI-TUMOR THERAPY” (XRAD Therapeutics, Inc., priority 2019, published 2022)
